Experimental data reported in the NIST ThermoML archive (doi:10.1021/je3005408).
± gives the expanded uncertainty stated by the source.

Conditions: Liquid, Ebulliometric method (Recirculating still)

vapor or sublimation pressure (317.95 K) [kPa] | vapor or sublimation pressure (336.85 K) [kPa] | vapor or sublimation pressure (349.15 K) [kPa] | SMILES | vapor or sublimation pressure (361.65 K) [kPa] | vapor or sublimation pressure (381.35 K) [kPa] | vapor or sublimation pressure (394.25 K) [kPa]
– | – | – | CCCCOC(C)=O [butyl ethanoate] | 29.77 ± 0.34 | 58.85 ± 0.79 | 87.65 ± 1.3
29.77 ± 0.34 | 58.85 ± 0.77 | 87.65 ± 1.2 | C1CCCCC1 [cyclohexane] | – | – | –
